The record followed here is ChEMBL document CHEMBL4602628, “Design, synthesis, and enzymatic characterization of quinazoline-based CYP1A2 inhibitors” (Bioorg Med Chem Lett, 2020).

The experiment has as its target T1, Cytochrome P450 1A2 (Homo sapiens, UniProt P05177).
T1 sequence (P05177 whole entry): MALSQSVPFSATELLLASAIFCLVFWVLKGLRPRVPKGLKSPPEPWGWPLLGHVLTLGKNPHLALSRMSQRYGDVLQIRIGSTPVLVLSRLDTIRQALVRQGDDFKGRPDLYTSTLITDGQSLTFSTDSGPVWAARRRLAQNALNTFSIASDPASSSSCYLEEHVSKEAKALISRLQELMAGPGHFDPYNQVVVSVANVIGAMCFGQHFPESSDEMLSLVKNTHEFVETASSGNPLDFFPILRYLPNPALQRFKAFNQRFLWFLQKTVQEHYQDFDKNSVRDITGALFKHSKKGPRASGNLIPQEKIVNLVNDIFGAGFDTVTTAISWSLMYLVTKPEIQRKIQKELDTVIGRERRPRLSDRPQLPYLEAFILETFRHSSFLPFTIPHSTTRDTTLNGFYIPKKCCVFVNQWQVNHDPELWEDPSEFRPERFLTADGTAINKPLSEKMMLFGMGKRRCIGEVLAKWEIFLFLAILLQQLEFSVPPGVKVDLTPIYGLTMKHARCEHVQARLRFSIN
As to the kind of experiment: Inhibition of recombinant human CYP1A2 using luciferin-ME as substrate preincubated for 10 mins followed by NADPH addition and measured after 10 to 30 mins by P450-Glo assay.

The structures appear in SMILES notation.

As a reminder, the IC50 is the concentration at which inhibition is half-maximal. In the case of `c1ccc2nc(-c3ccnc4ccccc34)ncc2c1`, the concentration for half-maximal inhibition (IC50) came to 960 nM.
`CN(C)c1ccc(-c2ncc3ccccc3n2)cc1`: the IC50 amounted to 4200 nM.
As for `O=[N+]([O-])c1cccc(-c2ncc3ccccc3n2)c1`, the figure is 1200 nM.
